In PMC11111408, “Concurrent inhibition of oncogenic and wild-type RAS-GTP for cancer therapy” (Nature, 2024):
Several values for one entry are separate records, joined by “and”; a condition that tells them apart may be missing. Identical values can stand only once.

Key:
KRAS–RALGDS [1] = target: T1, KRAS–RALGDS (Homo sapiens, UniProt P01116, G12D); experiment: Cellular nano-BRET, full length RALGDS binding to KRAS G12C, G12D, G12V; assay type: cell-based; settings: KRAS G12D, in the presence of CYPA, single replicates
T1 construct: expressed in transfected cells; host or cells: U2OS

KRAS–RALGDS [2] = target: T2, KRAS–RALGDS (Homo sapiens, UniProt P01116, G12V); experiment: as above; assay type: cell-based; settings: KRAS G12V, in the presence of CYPA, single replicates
T2 construct: expressed in transfected cells; host or cells: U2OS

KRAS–RALGDS [3] = target: T3, KRAS–RALGDS (Homo sapiens, UniProt P01116, G12C); experiment: as above; assay type: cell-based; settings: KRAS G12C, in the presence of CYPA, single replicates
T3 construct: expressed in transfected cells; host or cells: U2OS

[4] = test system: MRAS and other RAS family small GTPase proteins; experiment: Cellular BRET between CYPA and small GTPases (RIT1, MRAS, RRAS, RRAS2, Rheb); assay type: cell-based, human; settings: cellular BRET with CYPA
[5] = target: T4, MRAS and other RAS family small GTPase proteins (Homo sapiens, UniProt O14807, Q71R); experiment: as above; assay type: cell-based; settings: MRAS Q71R, single replicates
T4 construct: expressed in transfected cells; host or cells: U2OS PPIA-KO
T4 sequence (O14807 1-208 Q71R): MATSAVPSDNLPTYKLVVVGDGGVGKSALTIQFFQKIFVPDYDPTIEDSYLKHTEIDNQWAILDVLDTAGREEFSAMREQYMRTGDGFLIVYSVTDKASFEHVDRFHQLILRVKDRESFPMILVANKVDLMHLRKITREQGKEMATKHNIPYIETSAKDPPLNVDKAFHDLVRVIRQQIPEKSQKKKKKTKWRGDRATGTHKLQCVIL

[6] = test system: NCI-H358 cells (CYPA-high, CYPA-low); experiment: pERK (MSD) in NCI-H358 cells with low or high CYPA; settings: NCI-H358, doxycycline-inducible CYPA
Excerpt: NCI-H358 cells were transduced by lentivirus encoding Cas9, a guide RNA targeting PPIA (which encodes CYPA), and the puromycin resistance gene at WarpDrive Bio. Following puromycin selection, Flag–CYPA was introduced under the control of a tet-inducible promoter by lentivirus. Clones with high and low expression levels of Flag–CYPA were isolated at Revolution Medicines.

SMILES: CCn1c(-c2cc(N3CCN(C4CC4)CC3)cnc2[C@H](C)OC)c2c3cc(ccc31)-c1csc(n1)C[C@H](NC(=O)[C@H]1[C@@H]3COC[C@@H]31)C(=O)N1CCC[C@H](N1)C(=O)OCC(C)(C)C2 [RMC-7977]
- Cellular nano-BRET of RALGDS (full-length) binding to KRAS (KRAS–RALGDS [1]; RMC-7977 12.346 nM): 21.965 and 22.2278 and 22.7225 and 21.1836 and 19.9465 and 19.3916
- Cellular nano-BRET of RALGDS (full-length) binding to KRAS (KRAS–RALGDS [1]; RMC-7977 37.037 nM): 15.9727 and 15.3384 and 16.4816 and 15.5961 and 16.3731 and 14.4955
- Cellular nano-BRET of RALGDS (full-length) binding to KRAS (KRAS–RALGDS [1]; RMC-7977 111.111 nM): 13.7998 and 12.0846 and 13.3529 and 13.1019 and 13.0482 and 11.2251
- Cellular nano-BRET of RALGDS (full-length) binding to KRAS (KRAS–RALGDS [1]; RMC-7977 333.333 nM): 11.2999 and 11.1999 and 10.8448 and 10.0467 and 10.686 and 10.4797
- Cellular nano-BRET of RALGDS (full-length) binding to KRAS (KRAS–RALGDS [1]; RMC-7977 1000.000 nM): 10.2193 and 10.47 and 10.4459 and 10.0036 and 10.1066 and 10.1313
- Cellular nano-BRET of RALGDS (full-length) binding to KRAS (KRAS–RALGDS [2]; RMC-7977 4.115 nM): 30.1314 and 27.6913 and 29.7303 and 27.1744
- Cellular nano-BRET of RALGDS (full-length) binding to KRAS (KRAS–RALGDS [2]; RMC-7977 12.346 nM): 22.418 and 20.7842 and 21.8208 and 20.4059 and 22.2654 and 20.6652
- Cellular nano-BRET of RALGDS (full-length) binding to KRAS (KRAS–RALGDS [2]; RMC-7977 37.037 nM): 15.6693 and 15.6351 and 15.326 and 16.1305 and 15.8324 and 15.892
- Cellular nano-BRET of RALGDS (full-length) binding to KRAS (KRAS–RALGDS [2]; RMC-7977 111.111 nM): 12.652 and 12.1384 and 12.5044 and 12.7423 and 12.6511 and 12.657
- Cellular nano-BRET of RALGDS (full-length) binding to KRAS (KRAS–RALGDS [2]; RMC-7977 333.333 nM): 11.4911 and 11.1105 and 10.9221 and 11.2754 and 11.3448 and 11.4972
- Cellular nano-BRET of RALGDS (full-length) binding to KRAS (KRAS–RALGDS [2]; RMC-7977 1000.000 nM): 11.0787 and 10.8666 and 11.0137 and 11.1587 and 10.8841 and 10.9076
- Cellular nano-BRET of RALGDS (full-length) binding to KRAS (KRAS–RALGDS [3]; RMC-7977 4.115 nM): 18.1963 and 16.034 and 17.4595 and 15.2439 and 16.9748 and 14.2583
- Cellular nano-BRET of RALGDS (full-length) binding to KRAS (KRAS–RALGDS [3]; RMC-7977 12.346 nM): 13.0313 and 11.9807 and 11.9885 and 11.6119 and 11.6125 and 11.8549
- Cellular nano-BRET of RALGDS (full-length) binding to KRAS (KRAS–RALGDS [3]; RMC-7977 37.037 nM): 11.0793 and 10.028 and 11.2271 and 10.7778 and 11.2352 and 10.211
- Cellular nano-BRET of RALGDS (full-length) binding to KRAS (KRAS–RALGDS [3]; RMC-7977 111.111 nM): 10.2935 and 10.375 and 9.345 and 10.0632 and 10.0122 and 10.2781
- Cellular nano-BRET of RALGDS (full-length) binding to KRAS (KRAS–RALGDS [3]; RMC-7977 333.333 nM): 10.1394 and 10.5924 and 9.785 and 10.0763 and 9.658 and 9.979
- Cellular nano-BRET of RALGDS (full-length) binding to KRAS (KRAS–RALGDS [3]; RMC-7977 1000.000 nM): 10.8628 and 9.92 and 10.139 and 10.0712 and 10.3509 and 9.953
- tri-complex formation potency for KRAS versus MRAS and other RAS family small GTPases [4]: more than tenfold more potent
- Cellular milliBRET signal between CYPA and small GTPase protein ([5]; RMC-7977 1.524 nM): 0.1742 milliBRET and -0.02549 milliBRET and -0.02476 milliBRET and 0.1125 milliBRET and -0.009573 milliBRET and 0.6001 milliBRET
- Cellular milliBRET signal between CYPA and small GTPase protein ([5]; RMC-7977 4.572 nM): 0.2187 milliBRET and 0.4442 milliBRET and 0.7681 milliBRET and 0.6759 milliBRET and 0.0576 milliBRET and 0.4387 milliBRET
- Cellular milliBRET signal between CYPA and small GTPase protein ([5]; RMC-7977 13.717 nM): 1.192 milliBRET and 1.33 milliBRET and 1.81 milliBRET and 1.499 milliBRET and 1.997 milliBRET and 1.461 milliBRET
- Cellular milliBRET signal between CYPA and small GTPase protein ([5]; RMC-7977 41.152 nM): 3.258 milliBRET and 4.102 milliBRET and 3.883 milliBRET and 4.836 milliBRET and 4.487 milliBRET and 5.493 milliBRET
- Cellular milliBRET signal between CYPA and small GTPase protein ([5]; RMC-7977 123.457 nM): 7.175 milliBRET and 7.5859 milliBRET and 7.924 milliBRET and 8.745 milliBRET and 8.3065 milliBRET and 8.689 milliBRET
- Cellular milliBRET signal between CYPA and small GTPase protein ([5]; RMC-7977 370.370 nM): 10.161 milliBRET and 10.397 milliBRET and 10.5343 milliBRET and 10.3086 milliBRET and 10.5443 milliBRET and 10.7709 milliBRET
- Cellular milliBRET signal between CYPA and small GTPase protein ([5]; RMC-7977 1111.111 nM): 10.7121 milliBRET and 10.5516 milliBRET and 12.3365 milliBRET and 10.0544 milliBRET and 11.7366 milliBRET and 10.787 milliBRET
- sensitivity of CYPA-high versus CYPA-low cells, inhibition of signalling (pERK) [6]: threefold
